According to PubChem BioAssay AID330 (DTP/NCI, 2004):
Values joined by “and” are separate entries in the source; they are usually repeats but may differ in a detail not shown here. Identical values can stand only once. Toxic doses and inconclusive results are not listed.

Test system: P388 leukemia ip, CD2F1 mice, survival T/C
Assay: NCI In Vivo Anticancer Drug Screen. Data for tumor model P388 Leukemia (intraperitoneal) in CD2F1 (CDF1) mice
Details: endpoint: median survival time, higher = longer survival
Outline: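 Mice carrying the transplanted tumor received test compound or vehicle. Survival was recorded in each group, and the value is the treated-group measurement divided by that of the vehicle-treated control group.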

[1] = dose: 50.0 mg/kg/injection, schedule: Q01DX005 (ip), vehicle: saline with Tween-80
[2] = dose: 100.0 mg/kg/injection, schedule: Q01DX005 (ip), vehicle: saline with Tween-80
[3] = dose: 60.0 mg/kg/injection, schedule: Q01DX005 (ip), vehicle: saline with Tween-80
[4] = dose: 120.0 mg/kg/injection, schedule: Q01DX005 (ip), vehicle: saline with Tween-80
[5] = dose: 25.0 mg/kg/injection, schedule: Q01DX009 (ip), vehicle: saline with Tween-80
[6] = dose: 50.0 mg/kg/injection, schedule: Q01DX009 (ip), vehicle: saline with Tween-80
[7] = dose: 100.0 mg/kg/injection, schedule: Q01DX009 (ip), vehicle: saline with Tween-80
[8] = dose: 60.0 mg/kg/injection, schedule: Q01DX005 (ip), vehicle: Klucel (hydroxypropylcellulose) (HPC)
[9] = dose: 120.0 mg/kg/injection, schedule: Q01DX005 (ip), vehicle: Klucel (hydroxypropylcellulose) (HPC)
[10] = dose: 200.0 mg/kg/injection, schedule: Q01DX005 (ip), vehicle: saline with Tween-80
[11] = dose: 100.0 mg/kg/injection, schedule: Q01DX001 (ip), vehicle: saline
[12] = dose: 200.0 mg/kg/injection, schedule: Q01DX001 (ip), vehicle: saline
[13] = dose: 400.0 mg/kg/injection, schedule: Q01DX001 (ip), vehicle: saline

Q: What does the source list for COc1ccc(/C=C2/C/C(=C/c3ccc(OC)cc3)C2=O)cc1?
A: T/C (dose: 100.0 mg/kg/injection, schedule: Q04DX003 (ip), vehicle: Klucel (hydroxypropylcellulose) (HPC)): 95 % of control; T/C (dose: 200.0 mg/kg/injection, schedule: Q04DX003 (ip), vehicle: Klucel (hydroxypropylcellulose) (HPC)): 103 % of control; T/C (dose: 400.0 mg/kg/injection, schedule: Q04DX003 (ip), vehicle: Klucel (hydroxypropylcellulose) (HPC)): 97 % of control

Q: Which results are given for CC1(C)CN(c2ccccc2)N(CN2CCOCC2)C1=O?
A: T/C (dose: 3.12 mg/kg/injection, schedule: Q01DX009 (ip), vehicle: Klucel (hydroxypropylcellulose) (HPC)): 103 % of control; T/C (dose: 6.25 mg/kg/injection, schedule: Q01DX009 (ip), vehicle: Klucel (hydroxypropylcellulose) (HPC)): 97 % of control; T/C (dose: 12.5 mg/kg/injection, schedule: Q01DX009 (ip), vehicle: Klucel (hydroxypropylcellulose) (HPC)): 104 % of control

Q: Which T/C [1] does the source give for CN1C(=O)C/C(=C\N2CCCCC2)C1=O here?
A: 98 % of control

Q: What about the T/C [2] of the same compound?
A: 102 % of control

Q: For C/C=C(/CN/C(=C\[N+](=O)[O-])c1ccccc1)c1ccccc1, which T/C [3] is on record?
A: 102 % of control

Q: What about the T/C [4] of the same compound?
A: 100 % of control

Q: What about the T/C (dose: 240.0 mg/kg/injection, schedule: Q01DX005 (ip), vehicle: saline with Tween-80) of the same compound?
A: 95 % of control

Q: For CC(=O)c1c(O)cc(-c2ccccc2)oc1=O, which T/C (dose: 9.5 mg/kg/injection, schedule: Q01DX005 (ip), vehicle: Klucel (hydroxypropylcellulose) (HPC)) is on record?
A: 91 % of control

Q: And the T/C (dose: 19.0 mg/kg/injection, schedule: Q01DX005 (ip), vehicle: Klucel (hydroxypropylcellulose) (HPC))?
A: 96 % of control

Q: And the T/C (dose: 38.0 mg/kg/injection, schedule: Q01DX005 (ip), vehicle: Klucel (hydroxypropylcellulose) (HPC))?
A: 93 % of control

Q: What about the T/C (dose: 76.0 mg/kg/injection, schedule: Q01DX005 (ip), vehicle: Klucel (hydroxypropylcellulose) (HPC)) of the same compound?
A: 106 % of control

Q: For CC(=O)c1ccc[n+](Cc2ccc([N+](=O)[O-])cc2)c1, which T/C [5] is on record?
A: 95 % of control

Q: And the T/C [6]?
A: 100 % of control

Q: What about the T/C [7] of the same compound?
A: 90 % of control

Q: CCN(CCc1ccc(N)cc1)C(Cc1ccccc1)c1cccc(OC)c1 (stereo not given) was tested. Which T/C (dose: 12.5 mg/kg/injection, schedule: Q01DX009 (ip), vehicle: saline with Tween-80) did it give?
A: 95 % of control

Q: What about the T/C [5] of the same compound?
A: 95 % of control

Q: And the T/C [6]?
A: 87 % of control

Q: For N#CC1CCCC(Cc2ccccc2)(c2ccccc2)C1=O (stereo not given), which T/C (dose: 100.0 mg/kg/injection, schedule: Q01DX001 (ip), vehicle: Klucel (hydroxypropylcellulose) (HPC)) is on record?
A: 101 % of control

Q: And the T/C (dose: 200.0 mg/kg/injection, schedule: Q01DX001 (ip), vehicle: Klucel (hydroxypropylcellulose) (HPC))?
A: 102 % of control

Q: And the T/C (dose: 400.0 mg/kg/injection, schedule: Q01DX001 (ip), vehicle: Klucel (hydroxypropylcellulose) (HPC))?
A: 100 % of control

Q: What does the source list for CCOC(=O)CCC(C)(C#N)C(C#N)C(=O)OCC (stereo not given)?
A: T/C [7]: 100 % of control; T/C (dose: 100.0 mg/kg/injection, schedule: Q04DX003 (ip), vehicle: saline with Tween-80): 100 % of control; T/C (dose: 200.0 mg/kg/injection, schedule: Q04DX003 (ip), vehicle: saline with Tween-80): 100 % of control; T/C (dose: 400.0 mg/kg/injection, schedule: Q01DX009 (ip), vehicle: saline with Tween-80): 100 % of control; T/C (dose: 400.0 mg/kg/injection, schedule: Q04DX003 (ip), vehicle: saline with Tween-80): 100 % of control

Q: With C/C(=N/NC(N)=O)c1cn[nH]c1C as the compound, how does the T/C [8] read?
A: 117 % of control

Q: What about the T/C [9] of the same compound?
A: 124 % of control

Q: For CCOC(=O)CN1CCC(C(=O)OC)CC1, which T/C (dose: 100.0 mg/kg/injection, schedule: Q04DX003 (ip), vehicle: saline) is on record?
A: 100 % of control

Q: And the T/C (dose: 200.0 mg/kg/injection, schedule: Q04DX003 (ip), vehicle: saline)?
A: 100 % of control

Q: What about the T/C (dose: 400.0 mg/kg/injection, schedule: Q04DX003 (ip), vehicle: saline) of the same compound?
A: 100 % of control

Q: Which T/C (dose: 50.0 mg/kg/injection, schedule: Q01DX009 (ip), vehicle: other) does the source give for O=C(Oc1ccccc1)N1CCOCC1 here?
A: 96 % of control

Q: And the T/C (dose: 100.0 mg/kg/injection, schedule: Q01DX009 (ip), vehicle: other)?
A: 102 % of control

Q: And the T/C (dose: 200.0 mg/kg/injection, schedule: Q01DX009 (ip), vehicle: other)?
A: 112 % of control

Q: For CCOC(=O)n1c(=O)oc2c(Br)cc(Br)cc21, which T/C (dose: 50.0 mg/kg/injection, schedule: Q04DX002 (ip), vehicle: Klucel (hydroxypropylcellulose) (HPC)) is on record?
A: 96 % of control

Q: And the T/C (dose: 100.0 mg/kg/injection, schedule: Q04DX002 (ip), vehicle: Klucel (hydroxypropylcellulose) (HPC))?
A: 99 % of control

Q: What about the T/C (dose: 200.0 mg/kg/injection, schedule: Q04DX002 (ip), vehicle: Klucel (hydroxypropylcellulose) (HPC)) of the same compound?
A: 93 % of control

Q: For COC(=O)[C@H]1[C@H]2CCOC1(c1cc(OC)c(OC)c(OC)c1)c1cc3c(cc1[C@H]2O)OCO3, which T/C (dose: 4.5 mg/kg/injection, schedule: Q01DX009 (ip), vehicle: Klucel (hydroxypropylcellulose) (HPC)) is on record?
A: 102 % of control

Q: What about the T/C (dose: 9.0 mg/kg/injection, schedule: Q01DX009 (ip), vehicle: Klucel (hydroxypropylcellulose) (HPC)) of the same compound?
A: 104 % of control

Q: What about the T/C (dose: 18.0 mg/kg/injection, schedule: Q01DX009 (ip), vehicle: Klucel (hydroxypropylcellulose) (HPC)) of the same compound?
A: 96 % of control

Q: And the T/C (dose: 36.0 mg/kg/injection, schedule: Q01DX009 (ip), vehicle: Klucel (hydroxypropylcellulose) (HPC))?
A: 100 % of control

Q: Which T/C [3] does the source give for CCC(COC(=O)c1ccc(N(CC)CC)cc1)NC1CCCCC1 (stereo not given) here?
A: 111 % of control

Q: And the T/C [4]?
A: 90 % of control

Q: Which T/C [1] does the source give for COc1c2occc2c(N=Cc2c[nH]c3ccccc23)c2ccc(=O)oc12 here?
A: 92 % of control

Q: What about the T/C [2] of the same compound?
A: 93 % of control

Q: And the T/C [10]?
A: 86 % of control

Q: What does the source list for CC(=O)C1C(=O)C(=O)N(c2ccc(O)c(C(=O)O)c2)C1=O (stereo not given)?
A: T/C (dose: 100.0 mg/kg/injection, schedule: Q04DX002 (ip), vehicle: saline with Tween-80): 100 % of control; T/C (dose: 200.0 mg/kg/injection, schedule: Q04DX002 (ip), vehicle: saline with Tween-80): 94 % of control; T/C (dose: 400.0 mg/kg/injection, schedule: Q04DX002 (ip), vehicle: saline with Tween-80): 93 % of control

Q: Which results are given for CCCCCCCC/C=C\CCCCCCCCCCCC(=O)OCCN(CCOC(=O)CCCCCCCCCCC/C=C\CCCCCCCC)C(=O)c1ccccc1?
A: T/C [6]: 106 % of control; T/C [7]: 116 % of control; T/C (dose: 200.0 mg/kg/injection, schedule: Q01DX009 (ip), vehicle: saline with Tween-80): 116 % of control

Q: Which results are given for Brc1ccc2c(ccc3nc4nnnn4nc32)c1?
A: T/C [8]: 94 % of control; T/C [9]: 90 % of control; T/C (dose: 240.0 mg/kg/injection, schedule: Q01DX005 (ip), vehicle: Klucel (hydroxypropylcellulose) (HPC)): 86 % of control

Q: What does the source list for COc1ccc(CN2CC(C)(NC(=O)OCc3ccccc3)C2=O)c(OC)c1 (stereo not given)?
A: T/C [1]: 106 % of control; T/C [2]: 98 % of control; T/C [10]: 103 % of control

Q: What does the source list for COC(=O)c1onc2ccc(Cl)cc12?
A: T/C (dose: 18.75 mg/kg/injection, schedule: Q01DX005 (ip), vehicle: Klucel (hydroxypropylcellulose) (HPC)): 99 % of control; T/C (dose: 37.5 mg/kg/injection, schedule: Q01DX005 (ip), vehicle: Klucel (hydroxypropylcellulose) (HPC)): 92 % of control; T/C (dose: 75.0 mg/kg/injection, schedule: Q01DX005 (ip), vehicle: Klucel (hydroxypropylcellulose) (HPC)): 93 % of control; T/C (dose: 150.0 mg/kg/injection, schedule: Q01DX005 (ip), vehicle: Klucel (hydroxypropylcellulose) (HPC)): 95 % of control

Q: With CCOC(=O)C(Cc1ccccc1)P(=O)(OCC)OCC (stereo not given) as the compound, how does the T/C [11] read?
A: 95 % of control

Q: And the T/C [12]?
A: 100 % of control

Q: And the T/C [13]?
A: 91 % of control

Q: What does the source list for CCOC(=O)N1CCN(c2ccc(/C=C\c3cccc(/C=C\c4ccc(N5CCN(C(=O)OCC)CC5)cc4)[n+]3C)cc2)CC1?
A: T/C (dose: 3.12 mg/kg/injection, schedule: Q01DX009 (ip), vehicle: saline): 118 % of control; T/C (dose: 6.25 mg/kg/injection, schedule: Q01DX009 (ip), vehicle: saline): 111 % of control

Q: How did the T/C (dose: 12.5 mg/kg/injection, schedule: Q04DX002 (ip), vehicle: saline with Tween-80) turn out when c1csc(-c2n[se]c(-c3cccs3)n2)c1 was run?
A: 99 % of control

Q: And the T/C (dose: 25.0 mg/kg/injection, schedule: Q04DX002 (ip), vehicle: saline with Tween-80)?
A: 100 % of control

Q: Which T/C [11] does the source give for NC(N)=N/C(N)=N\c1nn[nH]n1 here?
A: 95 % of control

Q: And the T/C [12]?
A: 100 % of control

Q: What about the T/C [13] of the same compound?
A: 100 % of control

Q: Which T/C (dose: 15.0 mg/kg/injection, schedule: Q01DX005 (ip), vehicle: saline) does the source give for Nc1nnc(N)n1-n1c(N)nnc1N here?
A: 104 % of control

Q: What about the T/C (dose: 30.0 mg/kg/injection, schedule: Q01DX005 (ip), vehicle: saline) of the same compound?
A: 99 % of control

Q: What about the T/C (dose: 60.0 mg/kg/injection, schedule: Q01DX005 (ip), vehicle: saline) of the same compound?
A: 100 % of control and 104 % of control

Q: Which T/C (dose: 50.0 mg/kg/injection, schedule: Q01DX009 (ip), vehicle: Klucel (hydroxypropylcellulose) (HPC)) does the source give for CCCCN=Cc1ccccc1O.CCCCN=Cc1ccccc1O.[Zn] here?
A: 98 % of control

Q: And the T/C (dose: 100.0 mg/kg/injection, schedule: Q01DX009 (ip), vehicle: Klucel (hydroxypropylcellulose) (HPC))?
A: 112 % of control
